According to ChEMBL document CHEMBL1201862, “PubChem BioAssay data set” (2004):
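In this assay, cells in 96-well plates receive the compound at five concentrations for 48 hours. Endpoints are linearly interpolated between the surrounding concentrations. GI50 is the concentration that inhibits growth by half.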 Active and inactive are the calls of the source. No stated cut-off is given here; in the data, active = GI50 up to about 1.1 µM and inactive = higher.

How the values were obtained:
Assay in all cases: NCI anticancer screen, dose series, 48 h
CAKI-1 = tested on: CAKI-1
CCRF-CEM = tested on: CCRF-CEM
HCT-116 = tested on: HCT-116
K562 = tested on: K562
KM12 = tested on: KM12
LOX IMVI = tested on: LOX IMVI
Malme-3M = tested on: Malme-3M
NCI-H460 = tested on: NCI-H460
RPMI-8226 = tested on: RPMI-8226
SK-MEL-28 = tested on: SK-MEL-28
SNB-19 = tested on: SNB-19
TK-10 = tested on: TK-10
UACC-62 = tested on: UACC-62
XF498 = tested on: XF498
DU-145 = tested on: DU-145
MDA-MB-231 = tested on: MDA-MB-231
MDA-N = tested on: MDA-N
MOLT-4 = tested on: MOLT-4
NCI-H522 = tested on: NCI-H522
PC-3 = tested on: PC-3

Structure (SMILES) | GI50 (CAKI-1) | GI50 (CCRF-CEM) | GI50 (HCT-116) | GI50 (K562) | GI50 (KM12) | GI50 (LOX IMVI) | GI50 (Malme-3M) | GI50 (NCI-H460) | GI50 (RPMI-8226) | GI50 (SK-MEL-28) | GI50 (SNB-19) | GI50 (TK-10) | GI50 (UACC-62) | GI50 (XF498) | GI50 (DU-145) | GI50 (MDA-MB-231) | GI50 (MDA-N) | GI50 (MOLT-4) | GI50 (NCI-H522) | GI50 (PC-3)
COc1ccc(C(=O)Nc2ccccc2C#N)cc1 | > 100 µM (inactive) | > 100 µM (inactive) | > 100 µM (inactive) | > 100 µM (inactive) | > 100 µM (inactive) | > 100 µM (inactive) | > 100 µM (inactive) | > 100 µM (inactive) | > 100 µM (inactive) | > 100 µM (inactive) | > 100 µM (inactive) | > 100 µM (inactive) | > 100 µM (inactive) | > 100 µM (inactive) | – | – | – | – | – | –
CC1=NNC(=O)[C@H]2[C@H]1CCC1[C@@H]2CC[C@]2(C)[C@@H](O)CC[C@@H]12 (some centres undefined) | > 100 µM (inactive) | > 100 µM (inactive) | > 100 µM (inactive) | > 100 µM (inactive) | > 100 µM (inactive) | > 100 µM (inactive) | > 100 µM (inactive) | > 100 µM (inactive) | > 100 µM (inactive) | > 100 µM (inactive) | > 100 µM (inactive) | > 100 µM (inactive) | > 100 µM (inactive) | – | > 100 µM (inactive) | > 100 µM (inactive) | > 100 µM (inactive) | > 100 µM (inactive) | > 100 µM (inactive) | > 100 µM (inactive)
Cc1cc(C)c2c(=N)c3ccccc3n(CCCCCCCCn3c4ccccc4c(=N)c4c(C)cc(C)nc43)c2n1 | 1.7 µM (inactive) | 0.204 µM (active) | 0.353 µM (active) | 0.19 µM (active) | 0.358 µM (active) | 0.515 µM (active) | 1.74 µM (inactive) | 0.184 µM (active) | 0.239 µM (active) | 1.6 µM (inactive) | 0.282 µM (active) | 1.93 µM (inactive) | 1.73 µM (inactive) | – | 1.64 µM (inactive) | 1.84 µM (inactive) | 1.56 µM (inactive) | 0.258 µM (active) | 1.38 µM (inactive) | 1.38 µM (inactive)
CNC(=O)OCc1c(COC(=O)NC)c(C)n(-c2ccc(Br)cc2)c1C | 4.02 µM (inactive) | 4.85 µM (inactive) | 10.8 µM (inactive) | 15.8 µM (inactive) | 14.4 µM (inactive) | 6.24 µM (inactive) | 17.6 µM (inactive) | 8.2 µM (inactive) | 11 µM (inactive) | 16.4 µM (inactive) | 18.7 µM (inactive) | 11 µM (inactive) | 4.89 µM (inactive) | – | 14.3 µM (inactive) | 13.9 µM (inactive) | 15.7 µM (inactive) | 6.79 µM (inactive) | 10.2 µM (inactive) | 17.2 µM (inactive)
CCCC1=C(OC)C(=O)c2c(C)cc(Cl)nc2C1=O | 8.97 µM (inactive) | 0.286 µM (active) | 2.62 µM (inactive) | 2.02 µM (inactive) | 7.29 µM (inactive) | 2.01 µM (inactive) | 3.02 µM (inactive) | 13.7 µM (inactive) | 2.16 µM (inactive) | 6.81 µM (inactive) | 14.7 µM (inactive) | 19.9 µM (inactive) | 3.3 µM (inactive) | – | 15.1 µM (inactive) | 5.53 µM (inactive) | 1.73 µM (inactive) | 1.55 µM (inactive) | 2.43 µM (inactive) | 9.08 µM (inactive)
O=c1c2cc([N+](=O)[O-])ccc2n2n1Cc1ccccc1CC2 | > 100 µM (inactive) | > 100 µM (inactive) | > 100 µM (inactive) | > 100 µM (inactive) | > 100 µM (inactive) | > 100 µM (inactive) | > 100 µM (inactive) | > 100 µM (inactive) | > 100 µM (inactive) | > 100 µM (inactive) | > 100 µM (inactive) | 38.1 µM (inactive) | > 100 µM (inactive) | – | > 100 µM (inactive) | > 100 µM (inactive) | > 100 µM (inactive) | > 100 µM (inactive) | > 100 µM (inactive) | > 100 µM (inactive)
O=C(O)/C=C/c1c2ccc(=O)c(O)c-2oc2c(O)c(O)ccc12 | > 100 µM (inactive) | 9.59 µM (inactive) | 17 µM (inactive) | 21.7 µM (inactive) | 25.3 µM (inactive) | 23 µM (inactive) | > 100 µM (inactive) | > 100 µM (inactive) | 23.2 µM (inactive) | > 100 µM (inactive) | > 100 µM (inactive) | > 100 µM (inactive) | 50.1 µM (inactive) | – | > 100 µM (inactive) | 20.8 µM (inactive) | 16.1 µM (inactive) | 18.9 µM (inactive) | > 100 µM (inactive) | > 100 µM (inactive)
C/C=C(/C)C(=O)O[C@H]1[C@H](O)CC(c2ccc3c(c2O)C(=O)C2=C(O)C4(OC)C(=O)C(C(N)=O)=C(O)[C@H](CC(=O)c5ccccc5O)C4CC2[C@@]3(C)OC)O[C@@H]1C (some centres undefined) | 0.0124 µM (active) | 0.0281 µM (active) | 0.00121 µM (active) | 0.01 µM (active) | 0.00647 µM (active) | 0.0035 µM (active) | 0.0182 µM (active) | 0.00178 µM (active) | 0.00785 µM (active) | 0.653 µM (active) | 0.00433 µM (active) | 0.00817 µM (active) | 0.01 µM (active) | – | 0.0265 µM (active) | 0.0078 µM (active) | 0.0272 µM (active) | 0.148 µM (active) | 0.00557 µM (active) | 0.00637 µM (active)
CCCCCCOc1ccc(C(=O)NO)cc1 | 4.44 µM (inactive) | 0.362 µM (active) | 8.53 µM (inactive) | 5.22 µM (inactive) | 11.9 µM (inactive) | 2.17 µM (inactive) | 11.3 µM (inactive) | 4.68 µM (inactive) | 2.82 µM (inactive) | 16 µM (inactive) | 17.8 µM (inactive) | 17.1 µM (inactive) | 6.82 µM (inactive) | – | 8.05 µM (inactive) | 11 µM (inactive) | 13.2 µM (inactive) | 1.07 µM (active) | 3.14 µM (inactive) | 9.51 µM (inactive)
C=C(CCC(=O)N(CCc1c[nH]c2ccccc12)C(=O)c1ccccc1CSCC)C(=O)OC | 84.1 µM (inactive) | 5.4 µM (inactive) | 7.19 µM (inactive) | 5.66 µM (inactive) | 8.2 µM (inactive) | 29.2 µM (inactive) | 48.9 µM (inactive) | 32.2 µM (inactive) | 7.59 µM (inactive) | > 100 µM (inactive) | 56.5 µM (inactive) | 66.5 µM (inactive) | 12.4 µM (inactive) | – | > 95.5 µM (inactive) | 30.1 µM (inactive) | 38.4 µM (inactive) | 4.02 µM (inactive) | 23.6 µM (inactive) | 23.2 µM (inactive)
O=[N+]([O-])c1c(F)c(F)c2c(c1F)Nc1ccccc1S2 | 3.99 µM (inactive) | 2.69 µM (inactive) | 2.47 µM (inactive) | 2.87 µM (inactive) | 4.49 µM (inactive) | 1.86 µM (inactive) | 5.55 µM (inactive) | 6 µM (inactive) | 4.7 µM (inactive) | 2.51 µM (inactive) | 7.23 µM (inactive) | 23.8 µM (inactive) | 5.61 µM (inactive) | – | 4.06 µM (inactive) | 2.27 µM (inactive) | 4.42 µM (inactive) | 2.61 µM (inactive) | 4.68 µM (inactive) | 9.16 µM (inactive)
